From patent US4880779A, “Method of prevention or treatment of AIDS by inhibition of human immunodeficiency virus” (priority 1987, dated 1989)
Where a SMILES comes first, the peptide text is derived from it.

Columns and labels:
uninfected RH9 cells = test system: uninfected RH9 cells
Method: (§1) The commercially available peptides, carbobenzoxy-D- Phe-L-Phe-Gly (z-PPG) and Phe-Gly-Gly-Phe (PGGP) were obtained from Sigma Chemical Company, St. Louis, MO in granular form. Stock solutions were prepared to 20 mg/ml in dimethyl sulfoxide and stored at 0° C. A line of uninfected human lymphoblasts, RH9, and a line of lymphoblasts persistently infected with human immunodeficiency virus (HIV) were obtained from Dr. Robert Garry of Tulane Medical Center, New Orleans, La. and grown in RPMI medium containing 10% fetal calf serum obtained from Gibco, Grand Island, N.Y.
To test this further incubated cultures of either uninfected RH9 cells, or HIV-infected carrier cultures, were incubated with PGGP for four days.

[1] = test system: human immunodeficiency virus (HIV); experiment: HIV-induced cell fusion: RH9 cells mixed with HIV-infected lymphoblasts; assay type: cell-based; settings: for Polykaryocytes Mean Diameter / Polykaryocytes Per mm^2: RH9 + HIV-RH9; for activity as inhibitor of HIV-induced cell fusion: RH9 + HIV-infected cells
Method: as §1
In the experimental protocol, RH9 cells are pretreated with various concentrations of either z-PPG or PGGP by adding a small aliquot of the peptide/DMSO solution to a suspension culture. After 1 hour, a suspension culture containing one-half the number of HIV-infected cells are added to the RH9-peptide mixture. The mixture is then incubated at 37° C. for 18 hours, and examined periodically for induction of cell fusion in the cell mixture.

N[C@@H](Cc1ccccc1)C(=O)NCC(=O)NCC(=O)N[C@@H](Cc1ccccc1)C(=O)O [PGGP, Phe-Gly-Gly-Phe] (H-FGGF-OH)
effect on rate of growth, final cell density or cell viability (uninfected RH9 cells): no significant effect

carbobenzoxy-D- Phe-L-Phe-Gly [z-PPG]
Polykaryocytes Mean Diameter ([1]; 0.08 M peptide): 51 um
Polykaryocytes Per mm^2 ([1]; 0.08 M peptide): 105 per mm^2
Polykaryocytes Mean Diameter ([1]; 0.25 M peptide): 37 um
Polykaryocytes Per mm^2 ([1]; 0.25 M peptide): 59 per mm^2
Polykaryocytes Mean Diameter ([1]; 0.8 M peptide): 26 um
Polykaryocytes Per mm^2 ([1]; 0.8 M peptide): 4 per mm^2
inhibition of fusion (phase photomicrographs, FIG. 1) ([1]; approximtely 1 mM peptide, 1 hour pretreatment of RH9, 18 hours at 37° C.): almost complete inhibition of fusion
minimal inhibitory dose ([1]; inhibition of cell fusion under these experimental conditions, 18 hours): 0.3 mM

z-Phe-Gly [reference compound]
activity as inhibitor of HIV-induced cell fusion [1]: no demonstrable activity

z-Phe-Leu [x-Phe-Leu, reference compound]
activity as inhibitor of HIV-induced cell fusion [1]: no demonstrable activity
activity as inhibitor of HIV-induced cell fusion ([1]; listed as z-Phe-Leu): ineffective
